Results: US5780431A, “Pharmaceutical formulations of corticotropin releasing factor having improved stability in liquid form” (Neurobiological Technologies, Inc., priority 1996, dated 1998)
In brackets after ≈: the same amount, converted by molar mass. Several values for one entry are separate records, joined by “and”; a condition that tells them apart may be missing. Equal entries are not always repeated. Where two headings read alike, the source gives them in different places.

Key:
[1] = Solubility of CRF in various non-volatile buffer solutions; format: physicochemical
Procedure: (§1) In an effort to develop liquid formulations of CRF useful for commercial pharmaceutical purposes, experiments designed to measure the solubility of CRF in a variety of different buffer solutions were carried out. Specifically, CRF was added in increasing amounts to a variety of different buffer solutions at various different concentrations and pH's, either in the presence or absence of other excipient additives and the solubility of the CRF product was determined. Table 1 summarizes the results of these experiments measuring the solubility of CRF in various phosphate, citrate and acetate buffers, either in the presence or absence of various excipients such as NaCl and mannitol. CRF solubility is expressed in gross weight of CRF in mg/ml of solution.
Next, because it is known that certain buffers may be volatilized when lyophilized, further experiments were conducted as described above to examine the solubility of CRF in various other non-volatile buffer solutions.

[2] = Solubility of CRF in various buffer solutions; format: physicochemical; conditions: for solubility: read-out: CRF solubility (gross weight)
Procedure: as §1

- CRF solubility ([1]; 10 mM Phosphate, pH 7.3): 3.0 net mg/ml
- CRF solubility ([1]; 10 mM Phosphate, pH 7.3 + 25 mM ascorbate): 1.2 net mg/ml
- CRF solubility ([1]; 10 mM Phosphate, pH 7.3 + 0.25% arginine): 2.0 net mg/ml
- CRF solubility ([1]; 10 mM Phosphate, pH 7.3 + 0.25% glycine): 2.2 net mg/ml
- CRF solubility ([1]; 25 mM Ascorbic, pH 4.0): 4.5 net mg/ml
- CRF solubility ([1]; 25 mM Lactic, pH 4.0): 1.9 net mg/ml
- CRF solubility ([1]; 25 mM Succinic, pH 4.0): 4.2 net mg/ml
- CRF solubility ([1]; 25 mM Tartaric, pH 4.0): 0.2 net mg/ml
- CRF solubility ([1]; ascorbic, lactic, succinic and phosphate buffers tested): extremely soluble
- CRF solubility ([2]; acetate buffer between pH 4 and 5 without added NaCl): very soluble
- CRF solubility ([2]; citrate buffer between pH 4 and 6): < 200 µg/mL
- solubility ([2]; citrate buffer, pH 4, aqueous buffer, pH 4.0, 25 mM Citrate, 150 mM NaCl): 20 µg/mL (≈ 4.2 µM)
- solubility ([2]; citrate buffer, pH 4, aqueous buffer, pH 4.0, 25 mM Citrate): 40 µg/mL (≈ 8.41 µM)
- solubility ([2]; citrate buffer, pH 5.1, aqueous buffer, pH 5.1, 25 mM Citrate, 150 mM NaCl): 10 µg/mL (≈ 2.1 µM)
- solubility ([2]; citrate buffer, pH 5.1, aqueous buffer, pH 5.1, 25 mM Citrate): 20 µg/mL (≈ 4.2 µM)
- CRF solubility (gross weight) ([2]; pH 2.0, 10 mM PO4, 138 mM NaCl): 50000 µg/mL
- CRF solubility (gross weight) ([2]; pH 4.08, 5 mM Citrate): 200 µg/mL
- CRF solubility (gross weight) ([2]; pH 4.08, 5 mM Citrate, 150 mM NaCl): 160 µg/mL
- CRF solubility (gross weight) ([2]; pH 4.2, 5 mM HOAC, 150 mM NaCl): 1170 µg/mL
- CRF solubility (gross weight) ([2]; pH 4.2, 25 mM HOAc): 29000 µg/mL
- CRF solubility (gross weight) ([2]; pH 4.26, 20 mM HOAc, 5% mannitol): 14500 µg/mL
- CRF solubility (gross weight) ([2]; pH 4.34, 20 mM HOAc, 5% mannitol): 11200 µg/mL
- CRF solubility (gross weight) ([2]; pH 4.4, 5 mM HOAC): 33000 µg/mL
- CRF solubility (gross weight) ([2]; pH 4.45, 20 mM HOAc, 5% mannitol): 13800 µg/mL
- CRF solubility (gross weight) ([2]; pH 4.49, 25 mM HOAc): 5340 µg/mL
- CRF solubility (gross weight) ([2]; pH 4.49, 25 mM HOAc, 150 mM NaCl): 280 µg/mL
- CRF solubility (gross weight) ([2]; pH 4.52, 20 mM HOAc, 5% mannitol): 12500 µg/mL
- CRF solubility (gross weight) ([2]; pH 4.6, 5 mM HOAC, 5% mannitol): 2200 µg/mL
- CRF solubility (gross weight) ([2]; pH 4.7, 5 mM HOAC, 1% mannitol): 1960 µg/mL
- CRF solubility (gross weight) ([2]; pH 4.72, 5 mM HOAC, 1% Tween): 1970 µg/mL
- CRF solubility (gross weight) ([2]; pH 4.73, 20 mM HOAc, 5% mannitol): 1530 µg/mL
- CRF solubility (gross weight) ([2]; pH 4.81, 5 mM HOAC): 1130 µg/mL
- CRF solubility (gross weight) ([2]; pH 4.9, 25 mM HOAc): 370 µg/mL
- CRF solubility (gross weight) ([2]; pH 4.9, 25 mM HOAc, 150 mM NaCl): 140 µg/mL
- CRF solubility (gross weight) ([2]; pH 4.92, 5 mM Citrate): 30 µg/mL
- CRF solubility (gross weight) ([2]; pH 4.92, 5 mM Citrate, 150 mM NaCl): 10 µg/mL
- CRF solubility (gross weight) ([2]; pH 4.94, 20 mM HOAc, 5% mannitol): 70 µg/mL
- CRF solubility (gross weight) ([2]; pH 5.0, 5 mM HOAC): 130 µg/mL
- CRF solubility (gross weight) ([2]; pH 5.23, 20 mM HOAc, 5% mannitol): 40 µg/mL
- CRF solubility (gross weight) ([2]; pH 5.84, 5 mM Citrate): 40 µg/mL
- CRF solubility (gross weight) ([2]; pH 5.84, 5 mM Citrate, 150 mM NaCl): 20 µg/mL
- CRF solubility (gross weight) ([2]; pH 6.0, 5 mM HOAC): 30 µg/mL
- CRF solubility (gross weight) ([2]; pH 6.1, 25 mM Citrate): 100 µg/mL
- CRF solubility (gross weight) ([2]; pH 6.1, 25 mM Citrate, 150 mM NaCl): 70 µg/mL
- CRF solubility (gross weight) ([2]; pH 6.24, 25 mM HOAc): 90 µg/mL
- CRF solubility (gross weight) ([2]; pH 6.24, 25 mM HOAc, 150 mM NaCl): 50 µg/mL
- CRF solubility (gross weight) ([2]; pH 7.1, 10 mM PO4, 138 mM NaCl): 480 µg/mL and 840 µg/mL
- CRF solubility ([2]; phosphate buffer between pH 2 and 3.6): very soluble
- solubility ([2]; phosphate buffer, pH 3.6, aqueous buffer, pH 3.6, 10 mM PO4, 138 mM NaCl): 2640 µg/mL (≈ 555 µM)
- solubility ([2]; phosphate buffer, pH 4.2, aqueous buffer, pH 4.2, 10 mM PO4, 138 mM NaCl): 290 µg/mL (≈ 61 µM)
- solubility ([2]; phosphate buffer, pH 4.5, aqueous buffer, pH 4.5, 10 mM PO4, 138 mM NaCl): 620 µg/mL (≈ 130 µM)
- solubility ([2]; phosphate buffer, pH 5.6, aqueous buffer, pH 5.6, 10 mM PO4, 138 mM NaCl): 310 µg/mL (≈ 65.2 µM)
- solubility ([2]; phosphate buffer, pH 6.02, aqueous buffer, pH 6.02, 5 mM PO4): 80 µg/mL (≈ 16.8 µM)
- solubility ([2]; phosphate buffer, pH 6.7, aqueous buffer, pH 6.7, 10 mM PO4, 138 mM NaCl): 520 µg/mL (≈ 109 µM)
- solubility ([2]; phosphate buffer, pH 6.96, aqueous buffer, pH 6.96, 5 mM PO4): 470 µg/mL (≈ 98.8 µM)
- solubility ([2]; phosphate buffer, pH 7.32, aqueous buffer, pH 7.32, 20 mM PO4): 1460 µg/mL (≈ 307 µM)
- solubility ([2]; phosphate buffer, pH 7.7, aqueous buffer, pH 7.7, 5 mM PO4): 460 µg/mL (≈ 96.7 µM)
Compound: CC[C@H](C)[C@H](NC(=O)[C@@H](NC(=O)[C@H](CCC(=O)O)NC(=O)[C@H](CCSC)NC(=O)[C@H](CC(C)C)NC(=O)[C@H](CCCCN)NC(=O)[C@H](CCCNC(=N)N)NC(=O)[C@H](CC(N)=O)NC(=O)[C@H](CO)NC(=O)[C@H](Cc1c[nH]cn1)NC(=O)[C@H](C)NC(=O)[C@H](CCC(N)=O)NC(=O)[C@H](CCC(N)=O)NC(=O)[C@H](C)NC(=O)[C@H](CC(C)C)NC(=O)[C@H](CCC(N)=O)NC(=O)[C@H](CCC(=O)O)NC(=O)[C@H](C)NC(=O)[C@H](CCCNC(=N)N)NC(=O)[C@H](C)NC(=O)[C@H](CCSC)NC(=O)[C@H](CCC(=O)O)NC(=O)[C@H](CC(C)C)NC(=O)[C@@H](NC(=O)[C@H](CCC(=O)O)NC(=O)[C@H](CCCNC(=N)N)NC(=O)[C@H](CC(C)C)NC(=O)[C@H](CC(C)C)NC(=O)[C@H](Cc1c[nH]cn1)NC(=O)[C@H](Cc1ccccc1)NC(=O)[C@@H](NC(=O)[C@H](CC(C)C)NC(=O)[C@H](CC(=O)O)NC(=O)[C@H](CC(C)C)NC(=O)[C@H](CO)NC(=O)[C@@H](NC(=O)[C@@H]1CCCN1C(=O)[C@@H]1CCCN1C(=O)[C@H](CCC(=O)O)NC(=O)[C@H](CCC(=O)O)NC(=O)[C@@H](N)CO)[C@@H](C)CC)[C@@H](C)O)C(C)C)[C@@H](C)CC)C(N)=O [CRF]
